Values quoted from earlier work as cited in patent publication US12023406B2, “Gastric residence systems with release rate-modulating films” (Lyndra Therapeutics, Inc., priority 2017, dated 2024).

Settings: gastric pH range

## Cc1nc2n(c(=O)c1CCN1CCC(c3noc4cc(F)ccc34)CC1)CCCC2 [risperidone]
  solubility at pH 1.5 versus pH 4.8: significantly higher at the more acidic end of the gastric pH range
